# Reference: PubChem BioAssay (NCI)
#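 Following 48 hours of exposure in 96-well plates, responses at five concentrations were used to interpolate endpoints linearly. GI50 marks 50% less growth. TGI denotes the concentration required for complete inhibition of growth.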
# Tests used:
# Assay in all cases: DTP human tumour cell line panel, 48 h
# [1] = system: A498 renal
# [2] = system: CAKI-1 renal
# [3] = system: IGROV1 ovarian
# [4] = system: LOX IMVI melanoma
# [5] = system: NCI-H460 lung
# [6] = system: SK-MEL-2 melanoma
# [7] = system: SK-MEL-28 melanoma
# [8] = system: SNB-75 CNS
# [9] = system: U251 CNS
# [10] = system: UO-31 renal
Structure (SMILES),TGI [1],TGI [2],TGI [3],TGI [4],TGI [5],TGI [6],TGI [7],TGI [8],TGI [9],TGI [10],GI50 [10]
COc1cccc(-c2cc(=O)c3cc(Cl)cnc3[nH]2)c1,> 100 µM,71.8 µM,> 100 µM,> 100 µM,> 100 µM,98.2 µM,> 100 µM,> 100 µM,23.5 µM,> 62 µM,
C/C=C1\CC(C(=O)OCC)CCCCCCCCCCC1=O (stereo unspecified),> 100 µM,> 100 µM,> 100 µM,80.8 µM,> 100 µM,> 100 µM,> 100 µM,> 100 µM,> 100 µM,> 100 µM,
C=C1c2nc3ccccc3n2C=C(c2ccc(OC)cc2)N1c1ccc(OCCN2CCOCC2)cc1,> 100 µM,> 100 µM,> 100 µM,> 100 µM,> 49.9 µM,> 52.2 µM,> 100 µM,> 100 µM,> 100 µM,> 100 µM,
C=CCC(CNC(=O)OCc1ccccc1)OC(=O)OCc1ccccc1 (stereo unspecified),> 100 µM,> 100 µM,> 100 µM,> 100 µM,> 100 µM,> 100 µM,> 100 µM,> 100 µM,> 100 µM,> 100 µM,
O=C1OC(=O)C2C1C(c1ccccc1[N+](=O)[O-])C=C(c1ccco1)N2c1ccncc1 (stereo unspecified),26.9 µM,37.5 µM,5.3 µM,3.82 µM,31.9 µM,19.8 µM,24.5 µM,35.2 µM,12 µM,15.3 µM,
CCOP(=O)(OCC)C(Nc1ccc(F)cc1)c1ccccc1 (stereo unspecified),> 100 µM,> 100 µM,> 100 µM,> 100 µM,> 100 µM,> 100 µM,> 100 µM,> 100 µM,> 100 µM,> 100 µM,
CN(C)CCn1nc(N)c2nc3cc(C(F)(F)F)ccc3nc21,> 100 µM,> 100 µM,> 100 µM,> 100 µM,> 100 µM,> 100 µM,> 100 µM,72 µM,> 100 µM,> 100 µM,
CCCC1(N)CC(OC)OC(C)C1O (stereo unspecified),> 100 µM,> 100 µM,> 100 µM,> 100 µM,> 100 µM,> 100 µM,> 100 µM,> 100 µM,> 100 µM,> 100 µM,
CCOC(=O)CC[C@H](N)C(=O)N[C@H](Cc1ccc(N(CCCl)CCCl)cc1)C(=O)OCC,74.5 µM,4.03 µM,9.37 µM,> 39.1 µM,16.2 µM,> 28.4 µM,> 60.7 µM,5.89 µM,> 33.7 µM,0.281 µM,0.135 µM
